For this assay, the system named is L1210 leukemia ip in BDF1 mice, survival T/C. Put plainly: NCI In Vivo Anticancer Drug Screen. Data for tumor model L1210 Leukemia (intraperitoneal) in B6D2F1 (BDF1) mice. The settings on record: endpoint: mean survival time, higher = longer survival. The essentials: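 In this screen, tumor-bearing mice given compound are compared to those given vehicle, and their survival values are reported as a treated-to-control quotient.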

The mark [1] stands for this setting: dose: 100.0 mg/kg/injection, schedule: Q01DX001 (ip), vehicle: saline.
The mark [2] stands for this setting: dose: 200.0 mg/kg/injection, schedule: Q01DX001 (ip), vehicle: saline.
Where [3] appears, read: dose: 400.0 mg/kg/injection, schedule: Q01DX001 (ip), vehicle: saline.
The mark [4] stands for this setting: dose: 100.0 mg/kg/injection, schedule: Q04DX003 (ip), vehicle: saline with Tween-80.
Where [5] appears, read: dose: 200.0 mg/kg/injection, schedule: Q04DX003 (ip), vehicle: saline with Tween-80.
The mark [6] stands for this setting: dose: 400.0 mg/kg/injection, schedule: Q04DX003 (ip), vehicle: saline with Tween-80.
Setting [7] is: dose: 100.0 mg/kg/injection, schedule: Q01DX009 (ip), vehicle: saline with Tween-80.
Where [8] appears, read: dose: 200.0 mg/kg/injection, schedule: Q01DX009 (ip), vehicle: saline with Tween-80.
Setting [9] is: dose: 400.0 mg/kg/injection, schedule: Q01DX009 (ip), vehicle: saline with Tween-80.
[10] abbreviates: dose: 50.0 mg/kg/injection, schedule: Q04DX003 (ip), vehicle: saline.
The mark [11] stands for this setting: dose: 100.0 mg/kg/injection, schedule: Q04DX003 (ip), vehicle: saline.
Where [12] appears, read: dose: 200.0 mg/kg/injection, schedule: Q04DX003 (ip), vehicle: saline.
Setting [13] is: dose: 400.0 mg/kg/injection, schedule: Q04DX003 (ip), vehicle: saline.

Where “and” joins values, the source holds several entries; their conditions need not be identical. Equal values may be shown once. Toxic doses and inconclusive results are not listed.

With `O=C(N/N=C/c1ccccc1Cl)c1cccc2ccccc12`, the T/C under setting [1] was 92 % of control, the T/C under setting [2] is 101 % of control and the T/C under setting [3] was 103 % of control.
On to `CCOC(=O)Nc1cc(NCC(O)CN(C)c2ccccc2)c([N+](=O)[O-])c(N)n1` (stereo not drawn), for which the T/C is 95 % of control (dose: 100.0 mg/kg/injection, schedule: Q01DX001 (ip), vehicle: carboxymethylcellulose (CMC)); 95 % of control (dose: 200.0 mg/kg/injection, schedule: Q01DX001 (ip), vehicle: carboxymethylcellulose (CMC)); 92 % of control (dose: 400.0 mg/kg/injection, schedule: Q01DX001 (ip), vehicle: carboxymethylcellulose (CMC)).
Regarding `C=C(NC(=O)C(=C)NC(=O)c1csc(C2=NC3c4csc(n4)C4NC(=O)c5csc(n5)C(C(C)(O)C(C)O)NC(=O)C5CSC(=N5)/C(=C/C)NC(=O)C(C(C)O)NC(=O)c5csc(n5)C3(CC2)NC(=O)C(C)NC(=O)C(=C)NC(=O)C(=C)NC(=O)C(C(C)C)NC2C=Cc3c(C(C)O)cc(nc3C2O)C(=O)OC4C)n1)C(N)=O` (stereo not drawn), the T/C is, setting by setting: (dose: 3.12 mg/kg/injection, schedule: Q01DX009 (ip), vehicle: saline) 101 % of control; (dose: 6.25 mg/kg/injection, schedule: Q01DX009 (ip), vehicle: saline) 117 % of control.
For the compound `Cc1ccc(C(=O)/C(Cl)=N/O)cc1`, the T/C is 96 % of control (dose: 50.0 mg/kg/injection, schedule: Q01DX001 (ip), vehicle: other) and 104 % of control (dose: 100.0 mg/kg/injection, schedule: Q01DX001 (ip), vehicle: other).
For `CC1(C)N=CN=C(N)N1c1ccc(CCC(=O)Nc2ccc(S(=O)(=O)F)cc2)c(Cl)c1`, the T/C was 114 % of control under setting [4], 112 % of control under setting [5] and 109 % of control under setting [6].
Turning to `c1cc2c(c(C3=NCCO3)c1)CCCC2` (tested in a mixture with another compound), the T/C reads like this: under setting [7], 96 % of control; under setting [8], 88 % of control; under setting [9], 91 % of control.
Take `CCOC(=O)CN=CC1CCC=CO1` (stereo not drawn): the T/C reads like this: under setting [7], 97 % of control; under setting [4], 93 % of control; under setting [8], 103 % of control; under setting [5], 95 % of control; under setting [9], 108 % of control; under setting [6], 93 % of control.
For `O=C(O)c1ccccc1C(=O)c1ccc(Br)cc1`, the T/C is 93 % of control (dose: 100.0 mg/kg/injection, schedule: Q04DX003 (ip), vehicle: Klucel (hydroxypropylcellulose) (HPC)); 96 % of control (dose: 200.0 mg/kg/injection, schedule: Q04DX003 (ip), vehicle: Klucel (hydroxypropylcellulose) (HPC)); 104 % of control (dose: 400.0 mg/kg/injection, schedule: Q04DX003 (ip), vehicle: Klucel (hydroxypropylcellulose) (HPC)).
Turning to `CN(C)CCN1C(=O)NC(C)(C)C1=O`, the T/C under setting [10] is 96 % of control, the T/C under setting [11] is 101 % of control, the T/C under setting [12] is 90 % of control and the T/C under setting [13] was 93 % of control.
In the case of `C=CCNC(=S)Nc1cccc(OC(=O)NC2CCCCC2)c1`, the T/C runs as follows: (dose: 100.0 mg/kg/injection, schedule: Q01DX009 (ip), vehicle: Klucel (hydroxypropylcellulose) (HPC)) 103 % of control; (dose: 200.0 mg/kg/injection, schedule: Q01DX009 (ip), vehicle: Klucel (hydroxypropylcellulose) (HPC)) 105 % of control; (dose: 400.0 mg/kg/injection, schedule: Q01DX009 (ip), vehicle: Klucel (hydroxypropylcellulose) (HPC)) 97 % of control.
Consider `COC(=O)C(Cc1ccccc1)NC(=O)/C=C/N(CCCl)CCCl` (stereo not drawn), for which the T/C runs as follows: (dose: 10.0 mg/kg/injection, schedule: Q01DX Z (ip), vehicle: other) 97 % of control; (dose: 20.0 mg/kg/injection, schedule: Q01DX Z (ip), vehicle: other) 96 % of control; (dose: 40.0 mg/kg/injection, schedule: Q01DX Z (ip), vehicle: other) 89 % of control; (dose: 80.0 mg/kg/injection, schedule: Q01DX Z (ip), vehicle: other) 102 % of control.
`C[N+](C)(C)N=C1CCC2(CC1)c1ccccc1-c1ccccc12`: the T/C was 95 % of control (dose: 12.5 mg/kg/injection, schedule: Q01DX009 (ip), vehicle: saline); 103 % of control (dose: 12.5 mg/kg/injection, schedule: Q04DX003 (ip), vehicle: saline); 93 % of control (dose: 25.0 mg/kg/injection, schedule: Q01DX009 (ip), vehicle: saline); 100 % of control (dose: 25.0 mg/kg/injection, schedule: Q04DX003 (ip), vehicle: saline); 95 % of control under setting [10].
`Cc1cc[n+](CCCCCCCCCO)cc1`: the T/C under setting [1] was 103 % of control.
Consider `O=NN(CCCl)C(=O)Nc1c[nH]c(=O)[nH]c1=O`, for which the T/C was 200 % of control (dose: 0.75 mg/kg/injection, schedule: Q01DX Z (ip), vehicle: carboxymethylcellulose (CMC)); 177 % of control (dose: 1.0 mg/kg/injection, schedule: Q01DX Z (ip), vehicle: carboxymethylcellulose (CMC)); 185 % of control (dose: 1.5 mg/kg/injection, schedule: Q01DX Z (ip), vehicle: carboxymethylcellulose (CMC)); 192 % of control (dose: 2.0 mg/kg/injection, schedule: Q01DX Z (ip), vehicle: carboxymethylcellulose (CMC)); 210 % of control and 212 % of control (dose: 3.0 mg/kg/injection, schedule: Q01DX Z (ip), vehicle: carboxymethylcellulose (CMC)); 189 % of control (dose: 6.0 mg/kg/injection, schedule: Q01DX Z (ip), vehicle: carboxymethylcellulose (CMC)). Moreover, the T/C (dose: 18.0 mg/kg/injection, schedule: Q01DX Z (ip), vehicle: carboxymethylcellulose (CMC)) is 110 % of control; the T/C (dose: 20.0 mg/kg/injection, schedule: Q01DX001 (ip), vehicle: carboxymethylcellulose (CMC)) is 205 % of control; the T/C (dose: 31.0 mg/kg/injection, schedule: Q01DX001 (ip), vehicle: carboxymethylcellulose (CMC)) was 155 % of control; the T/C (dose: 40.0 mg/kg/injection, schedule: Q01DX001 (ip), vehicle: carboxymethylcellulose (CMC)) is 288 % of control; the T/C (dose: 50.0 mg/kg/injection, schedule: Q01DX001 (ip), vehicle: carboxymethylcellulose (CMC)) is 229 % of control; the T/C (dose: 62.0 mg/kg/injection, schedule: Q01DX001 (ip), vehicle: carboxymethylcellulose (CMC)) is 231 % of control. Besides, the T/C (dose: 80.0 mg/kg/injection, schedule: Q01DX001 (ip), vehicle: carboxymethylcellulose (CMC)) is 174 % of control and the T/C (dose: 125.0 mg/kg/injection, schedule: Q01DX001 (ip), vehicle: carboxymethylcellulose (CMC)) is 89 % of control.
`COC(=O)c1ccc(N(C)CC(=O)CNc2nc(N)nc(SCc3ccccc3)c2[N+](=O)[O-])cc1`: the T/C is, setting by setting: (dose: 100.0 mg/kg/injection, schedule: Q01DX001 (ip), vehicle: saline with Tween-80) 88 % of control; (dose: 200.0 mg/kg/injection, schedule: Q01DX001 (ip), vehicle: saline with Tween-80) 89 % of control; (dose: 400.0 mg/kg/injection, schedule: Q01DX001 (ip), vehicle: saline with Tween-80) 88 % of control.
For the compound `CCCCC(=O)N/N=C/c1c(O)ccc2ccccc12`, the T/C was 94 % of control under setting [1], 94 % of control under setting [2] and 92 % of control under setting [3].
Regarding `CN=C(C)C1=C(O)C(CC(=O)OC)N(C)C1=O` (stereo not drawn), the T/C under setting [11] was 103 % of control, the T/C under setting [12] is 102 % of control and the T/C under setting [13] was 96 % of control.
`O=[N+]([O-])CC(OCCCc1ccccc1)C(Cl)(Cl)Cl` (stereo not drawn): the T/C runs as follows: under setting [7], 107 % of control; under setting [4], 93 % of control; under setting [8], 109 % of control; under setting [5], 104 % of control; under setting [6], 91 % of control.
On to `CC(C)C(C)/C=C\C(C)C1CCC2=C3CCC4CC(O)CCC4(C)C3CCC21C` (stereo not drawn), for which the T/C reads like this: (dose: 100.0 mg/kg/injection, schedule: Q01DX001 (ip), vehicle: Klucel (hydroxypropylcellulose) (HPC)) 97 % of control; (dose: 200.0 mg/kg/injection, schedule: Q01DX001 (ip), vehicle: Klucel (hydroxypropylcellulose) (HPC)) 97 % of control; (dose: 400.0 mg/kg/injection, schedule: Q01DX001 (ip), vehicle: Klucel (hydroxypropylcellulose) (HPC)) 93 % of control.
As to `CCCCCCC(Cl)CCl` (stereo not drawn), the T/C is, setting by setting: (dose: 50.0 mg/kg/injection, schedule: Q01DX009 (ip), vehicle: saline) 97 % of control; (dose: 100.0 mg/kg/injection, schedule: Q01DX009 (ip), vehicle: saline) 110 % of control; under setting [11], 103 % of control; under setting [12], 115 % of control; under setting [13], 108 % of control.

Source of the values: PubChem BioAssay AID248 (DTP/NCI, 2004).
